Patent publication US10463670B2, “Use of non-peptide NK1 antagonists in a predetermined dose for the treatment of cancer” (SERVICIO ANDALUZ DE SALUD, priority 2013, dated 2019)

Columns and labels:
[1] = test system: human lung cancer, reference HCC-44; assay: Lung cancer HCC-44 tumours implanted s.c. in nude mice, Aprepitant alone; format: in vivo
Procedure: (§1) Immunocompromised female mice, 5-6 weeks of age were used, nu/nu Balb/c nude mice, provided by Harlan Iberica Barcelona (Spain). They were kept at 24° C. and in sterile conditions with food and water “ad libitum”. They were injected with 2×10^7 tumour cells, corresponding to cancer (human lung cancer, reference HCC-44 supplied by DSMZ) in 200 μl of PBS subcutaneous route. The tumour size was measured and the mice were evaluated for their state of health and weight daily. The mice were randomized in nine groups when the tumours reached a volume of 75 mm^3. One of the groups was treated with 200 μl of placebo (control group) and the eight remaining groups with doses of 10 (group 1), 20 (group 2), 30 (group 3), 40 (group 4), 50 (group 5), 60 (group 6), 70 (group 7) and 80 (group 8) mg per kilogram of weight and day of the NK1 receptor antagonist Aprepitant. 3 animals were treated per group, during 28 days. All the mice were sacrificed at the end of the experiment.

[2] = test system: human fibrosarcoma; reference HT-1080; assay: Fibrosarcoma HT-1080 tumours implanted s.c. in nude mice, Aprepitant alone; format: in vivo
Procedure: as §1
Immunocompromised female mice, 5-6 weeks of age were used, in the same conditions as explained in example 1. They were injected with 2×10^7 tumour cells, corresponding to a mesenchymal cell line tumour (human fibrosarcoma; reference HT-1080; supplied by DSMZ) in 200 μl of PBS by subcutaneous route. The tumour size was measured and the mice were evaluated for their state of health and weight daily. The mice were randomized in nine groups when the tumours reached a volume of 75 mm^3. One of the groups was treated with 200 μl of placebo (control group) and the eight remaining groups with doses of 10 (group 1), 20 (group 2), 30 (group 3), 40 (group 4), 50 (group 5), 60 (group 6), 70 (group 7) and 80 (group 8) mg per kilogram of weight and day of the NK1 receptor antagonist Aprepitant. 3 animals were treated per group, during 28 days. All the mice were sacrificed at the end of the experiment.

[3] = test system: Human adenocolon cancer SW-403; assay: MTS cell proliferation, nanomolar antagonist, SW-403; format: cell-based; conditions: Aprepitant 1, 5 and 7 nM, vs cells grown in the absence of antagonist, time dependant
Procedure: Cell cultures of various commercial tumour cell lines stated in table 13 were used. [table] […] The number of cells was quantified using a Coulter counter. […] The culture plates were grown in the presence of increasing concentrations of non-peptide NK1 receptor antagonists. To obtain the staining in the proliferation assays, 20 μl of MTS were added to each one of the wells of the cell culture plates 90 minutes before reading the samples in a multiscan spectrophotometer (TECAN Spectra classic, Barcelona, Spain) at 492 nm (assay wavelength) and 690 nm (reference wavelength). The different doses were tested in duplicate and each experiment was performed in triplicate. The antagonist Aprepitant was used at the following concentrations: 1 nanomolar -nM-, 5 nanomolar -nM- and 7 nanomolar -nM-. […] As proliferation control, the cells were grown in the absence of said antagonist. This is expressed in FIGS. 1 to 10.

[4] = Aprepitant 10 mg/kg/day, 7 days
[5] = Aprepitant 10 mg/kg/day, 14 days
[6] = Aprepitant 10 mg/kg/day, 21 days
[7] = Aprepitant 10 mg/kg/day, 28 days
[8] = Aprepitant 20 mg/kg/day, 7 days
[9] = Aprepitant 20 mg/kg/day, 14 days
[10] = Aprepitant 20 mg/kg/day, 21 days
[11] = Aprepitant 20 mg/kg/day, 28 days
[12] = Aprepitant 30 mg/kg/day, 7 days
[13] = Aprepitant 30 mg/kg/day, 14 days
[14] = Aprepitant 30 mg/kg/day, 21 days
[15] = Aprepitant 30 mg/kg/day, 28 days
[16] = Aprepitant 40 mg/kg/day, 7 days
[17] = Aprepitant 40 mg/kg/day, 14 days
[18] = Aprepitant 40 mg/kg/day, 21 days
[19] = Aprepitant 40 mg/kg/day, 28 days
[20] = Aprepitant 50 mg/kg/day, 7 days
[21] = Aprepitant 50 mg/kg/day, 14 days
[22] = Aprepitant 50 mg/kg/day, 21 days
[23] = Aprepitant 50 mg/kg/day, 28 days
[24] = Aprepitant 60 mg/kg/day, 7 days
[25] = Aprepitant 60 mg/kg/day, 14 days
[26] = Aprepitant 60 mg/kg/day, 21 days
[27] = Aprepitant 60 mg/kg/day, 28 days
[28] = Aprepitant 70 mg/kg/day, 7 days
[29] = Aprepitant 70 mg/kg/day, 14 days
[30] = Aprepitant 70 mg/kg/day, 21 days
[31] = Aprepitant 70 mg/kg/day, 28 days
[32] = Aprepitant 80 mg/kg/day, 7 days
[33] = Aprepitant 80 mg/kg/day, 14 days
[34] = Aprepitant 80 mg/kg/day, 21 days
[35] = Aprepitant 80 mg/kg/day, 28 days

In the case of `C[C@@H](O[C@H]1OCCN(Cc2n[nH]c(=O)[nH]2)[C@H]1c1ccc(F)cc1)c1cc(C(F)(F)F)cc(C(F)(F)F)c1` [Aprepitant], the “Tumour size (mean volume of the tumour)” value [1, 4] is reported as 210 ± 2 cubic millimeters, the “Tumour size (mean volume of the tumour)” value [1, 5] is reported as 190 ± 4 cubic millimeters and the “Tumour size (mean volume of the tumour)” value [1, 6] is reported as 165 ± 6 cubic millimeters. The “Tumour size (mean volume of the tumour)” value [1, 7] was 135 ± 3 cubic millimeters, the “Tumour size (mean volume of the tumour)” value [1, 8] was 205 ± 8 cubic millimeters and the “Tumour size (mean volume of the tumour)” value [1, 9] was 170 ± 3 cubic millimeters. The “Tumour size (mean volume of the tumour)” value [1, 10] was 145 ± 4 cubic millimeters, the “Tumour size (mean volume of the tumour)” value [1, 11] was 110 ± 4 cubic millimeters and the “Tumour size (mean volume of the tumour)” value [1, 12] was 185 ± 4 cubic millimeters. For the same compound, the “Tumour size (mean volume of the tumour)” value [1, 13] was 150 ± 6 cubic millimeters, the “Tumour size (mean volume of the tumour)” value [1, 14] was 135 ± 5 cubic millimeters and the “Tumour size (mean volume of the tumour)” value [1, 15] was 105 ± 2 cubic millimeters. The “Tumour size (mean volume of the tumour)” value [1, 16] was 155 ± 5 cubic millimeters, the “Tumour size (mean volume of the tumour)” value [1, 17] was 130 ± 4 cubic millimeters and the “Tumour size (mean volume of the tumour)” value [1, 18] was 120 ± 4 cubic millimeters. For the same compound, the “Tumour size (mean volume of the tumour)” value [1, 19] was 95 ± 4 cubic millimeters, the “Tumour size (mean volume of the tumour)” value [1, 20] was 130 ± 4 cubic millimeters and the “Tumour size (mean volume of the tumour)” value [1, 21] was 115 ± 7 cubic millimeters. For the same compound, the “Tumour size (mean volume of the tumour)” value [1, 22] was 105 ± 6 cubic millimeters, the “Tumour size (mean volume of the tumour)” value [1, 23] was 85 ± 6 cubic millimeters and the “Tumour size (mean volume of the tumour)” value [1, 24] was 110 ± 3 cubic millimeters. For the same compound, the “Tumour size (mean volume of the tumour)” value [1, 25] was 95 ± 8 cubic millimeters, the “Tumour size (mean volume of the tumour)” value [1, 26] was 80 ± 7 cubic millimeters and the “Tumour size (mean volume of the tumour)” value [1, 27] was 65 ± 4 cubic millimeters. For the same compound, the “Tumour size (mean volume of the tumour)” value [1, 28] was 95 ± 4 cubic millimeters, the “Tumour size (mean volume of the tumour)” value [1, 29] was 80 ± 6 cubic millimeters and the “Tumour size (mean volume of the tumour)” value [1, 30] was 65 ± 8 cubic millimeters. The “Tumour size (mean volume of the tumour)” value [1, 31] was 40 ± 7 cubic millimeters, the “Tumour size (mean volume of the tumour)” value [1, 32] was 70 ± 4 cubic millimeters and the “Tumour size (mean volume of the tumour)” value [1, 33] was 55 ± 7 cubic millimeters. For the same compound, the “Tumour size (mean volume of the tumour)” value [1, 34] was 40 ± 6 cubic millimeters, the “Tumour size (mean volume of the tumour)” value [1, 35] was 25 ± 5 cubic millimeters and the “Tumour size (mean volume of the tumour)” value [2, 4] was 220 ± 4 cubic millimeters. For the same compound, the “Tumour size (mean volume of the tumour)” value [2, 5] was 205 ± 4 cubic millimeters, the “Tumour size (mean volume of the tumour)” value [2, 6] was 195 ± 6 cubic millimeters and the “Tumour size (mean volume of the tumour)” value [2, 7] was 170 ± 6 cubic millimeters. The “Tumour size (mean volume of the tumour)” value [2, 8] was 195 ± 5 cubic millimeters, the “Tumour size (mean volume of the tumour)” value [2, 9] was 180 ± 5 cubic millimeters and the “Tumour size (mean volume of the tumour)” value [2, 10] was 165 ± 7 cubic millimeters. For the same compound, the “Tumour size (mean volume of the tumour)” value [2, 11] was 150 ± 7 cubic millimeters, the “Tumour size (mean volume of the tumour)” value [2, 12] was 175 ± 5 cubic millimeters and the “Tumour size (mean volume of the tumour)” value [2, 13] was 155 ± 6 cubic millimeters. The “Tumour size (mean volume of the tumour)” value [2, 14] was 135 ± 5 cubic millimeters, the “Tumour size (mean volume of the tumour)” value [2, 15] was 140 ± 4 cubic millimeters and the “Tumour size (mean volume of the tumour)” value [2, 16] was 160 ± 4 cubic millimeters. The “Tumour size (mean volume of the tumour)” value [2, 17] was 150 ± 3 cubic millimeters, the “Tumour size (mean volume of the tumour)” value [2, 18] was 120 ± 5 cubic millimeters and the “Tumour size (mean volume of the tumour)” value [2, 19] was 110 ± 6 cubic millimeters. For the same compound, the “Tumour size (mean volume of the tumour)” value [2, 20] was 145 ± 5 cubic millimeters, the “Tumour size (mean volume of the tumour)” value [2, 21] was 135 ± 7 cubic millimeters and the “Tumour size (mean volume of the tumour)” value [2, 22] was 100 ± 3 cubic millimeters. The “Tumour size (mean volume of the tumour)” value [2, 23] was 100 ± 7 cubic millimeters, the “Tumour size (mean volume of the tumour)” value [2, 24] was 135 ± 7 cubic millimeters and the “Tumour size (mean volume of the tumour)” value [2, 25] was 120 ± 6 cubic millimeters. For the same compound, the “Tumour size (mean volume of the tumour)” value [2, 26] was 90 ± 8 cubic millimeters, the “Tumour size (mean volume of the tumour)” value [2, 27] was 85 ± 4 cubic millimeters and the “Tumour size (mean volume of the tumour)” value [2, 28] was 120 ± 8 cubic millimeters. The “Tumour size (mean volume of the tumour)” value [2, 29] was 100 ± 4 cubic millimeters, the “Tumour size (mean volume of the tumour)” value [2, 30] was 85 ± 6 cubic millimeters and the “Tumour size (mean volume of the tumour)” value [2, 31] was 80 ± 7 cubic millimeters. The “Tumour size (mean volume of the tumour)” value [2, 32] was 100 ± 4 cubic millimeters, the “Tumour size (mean volume of the tumour)” value [2, 33] was 90 ± 8 cubic millimeters and the “Tumour size (mean volume of the tumour)” value [2, 34] was 70 ± 8 cubic millimeters. The “Tumour size (mean volume of the tumour)” value [2, 35] was 65 ± 9 cubic millimeters and the “Proliferation of tumour cells (MTS)” value [3] was “increase was observed of proliferation”.
